Measurements published in patent US20250205200A1, “5-METHOXY-N,N-[…][…] THE TREATMENT OF […]” (GH RESEARCH IRELAND LIMITED, priority 2022, published 2025).

What was measured:
[1] = Pharmacokinetics of 5-MeO-DMT and bufotenine after inhalation; type: in vivo, human
[2] = system: Salmonella typhimurium (TA98, TA100, TA1535 and TA1537); experiment: Bacterial mutation test, Salmonella typhimurium; type: cell-based; details: up to 5000 μg/plate; absence and presence of S-9
Procedure: These conditions included treatments at concentrations up to 5000 μg/plate (the maximum recommended concentration according to current regulatory guidelines), in the absence and in the presence of a rat liver metabolic activation system (S-9).

COc1ccc2[nH]cc(CCN(C)C)c2c1 [5-MeO-DMT]
Plasma concentration as % of Cmax ([1]; 10 minutes after inhalation, 6, 12, 18 mg): ≤ 10 % of Cmax
Plasma concentration as % of Cmax ([1]; 2 hours after inhalation, 6, 12, 18 mg): ≤ 1 % of Cmax
Detectability in the plasma ([1]; 3 hours after inhalation, 6, 12, 18 mg): no longer detectable
Time of maximum concentrations and pharmacological effects ([1]; inhaled): during and immediately after dosing
Accumulation upon repeated administration ([1]; repeated administration within 1 to 4 hours): No accumulation
Induction of mutation [2]: did not induce mutation
